Data on two compounds can be found in ChEMBL document CHEMBL5303573, “Mapping human microbiome drug metabolism by gut bacteria and their genes” (Nature, 2019).

One data set in a line: The drug is tested on Bacteroides finegoldii strain: DSM17565 for biotransformation. The drug concentrations were measured before and after a 12-h incubation by liquid-chromatography-coupled mass spectrometry (LC–MS). The settings on record: 2 µM.
Consider `CCN1CCCC1CNC(=O)c1cc(S(=O)(=O)CC)c(N)cc1OC` (centres undefined) [AMISULPRIDE], for which the “Bacterial Biotransformation” value is given as “Compound NOT metabolized”.

Turning to `CCCc1nc(C(C)(C)O)c(C(=O)OCc2oc(=O)oc2C)n1Cc1ccc(-c2ccccc2-c2nnn[nH]2)cc1` [OLMESARTAN MEDOXOMIL], the “Bacterial Biotransformation” value is recorded as “Compound metabolized”.

A short description of another data set: The drug is tested on Bacteroides fragilis strain: ATCC43859 for biotransformation. The drug concentrations were measured before and after a 12-h incubation by liquid-chromatography-coupled mass spectrometry (LC–MS). The settings on record: 2 µM.
`CCCc1nc(C(C)(C)O)c(C(=O)OCc2oc(=O)oc2C)n1Cc1ccc(-c2ccccc2-c2nnn[nH]2)cc1` [OLMESARTAN MEDOXOMIL]: the “Bacterial Biotransformation” value is on record as “Compound metabolized”.

For the next data set the following is noted: parabacteroides distasonis, 12 h, 2 µM.
Description: The drug is tested on Parabacteroides distasonis strain: ATCC8503 for biotransformation. The drug concentrations were measured before and after a 12-h incubation by liquid-chromatography-coupled mass spectrometry (LC–MS)
Regarding `CCN1CCCC1CNC(=O)c1cc(S(=O)(=O)CC)c(N)cc1OC` (centres undefined) [AMISULPRIDE], the “Bacterial Biotransformation” value is recorded as “Compound NOT metabolized”.

Turning to `CCCc1nc(C(C)(C)O)c(C(=O)OCc2oc(=O)oc2C)n1Cc1ccc(-c2ccccc2-c2nnn[nH]2)cc1` [OLMESARTAN MEDOXOMIL], the “Bacterial Biotransformation” value is on record as “Compound metabolized”.

A short description of another data set: The drug is tested on Collinsella aerofaciens strain: ATCC25986 for biotransformation. The drug concentrations were measured before and after a 12-h incubation by liquid-chromatography-coupled mass spectrometry (LC–MS). As to conditions: 2 µM.
With `CCN1CCCC1CNC(=O)c1cc(S(=O)(=O)CC)c(N)cc1OC` (centres undefined) [AMISULPRIDE], the “Bacterial Biotransformation” value is “Compound NOT metabolized”.

Take `CCCc1nc(C(C)(C)O)c(C(=O)OCc2oc(=O)oc2C)n1Cc1ccc(-c2ccccc2-c2nnn[nH]2)cc1` [OLMESARTAN MEDOXOMIL]: the “Bacterial Biotransformation” value is on record as “Compound metabolized”.

The next data set can be described thus: The drug is tested on Bacteroides fragilis strain: HMW615 for biotransformation. The drug concentrations were measured before and after a 12-h incubation by liquid-chromatography-coupled mass spectrometry (LC–MS). The settings on record: 2 µM.
On to `CCN1CCCC1CNC(=O)c1cc(S(=O)(=O)CC)c(N)cc1OC` (centres undefined) [AMISULPRIDE], for which the “Bacterial Biotransformation” value is “Compound NOT metabolized”.

A short description of the next data set: The drug is tested on Clostridium sporogenes strain: ATCC15579 for biotransformation. The drug concentrations were measured before and after a 12-h incubation by liquid-chromatography-coupled mass spectrometry (LC–MS). As to conditions: 2 µM.
`CCN1CCCC1CNC(=O)c1cc(S(=O)(=O)CC)c(N)cc1OC` (centres undefined) [AMISULPRIDE]: the “Bacterial Biotransformation” value is reported as “Compound NOT metabolized”.

For a further data set the following is noted: bacteroides intestinalis, 12 h, 2 µM.
Description: The drug is tested on Bacteroides intestinalis strain: DSM17393 for biotransformation. The drug concentrations were measured before and after a 12-h incubation by liquid-chromatography-coupled mass spectrometry (LC–MS)
For the compound `CCN1CCCC1CNC(=O)c1cc(S(=O)(=O)CC)c(N)cc1OC` (centres undefined) [AMISULPRIDE], the “Bacterial Biotransformation” value is “Compound NOT metabolized”.

In the case of `CCCc1nc(C(C)(C)O)c(C(=O)OCc2oc(=O)oc2C)n1Cc1ccc(-c2ccccc2-c2nnn[nH]2)cc1` [OLMESARTAN MEDOXOMIL], the “Bacterial Biotransformation” value is recorded as “Compound metabolized”.

Another data set in a line: The drug is tested on Coprococcus comes strain: ATCC27758 for biotransformation. The drug concentrations were measured before and after a 12-h incubation by liquid-chromatography-coupled mass spectrometry (LC–MS). The settings on record: 2 µM. The data set is classed as ADME. Further details: dose 2 uM, timepoint 0 vs 12 hours.
In the case of `CCN1CCCC1CNC(=O)c1cc(S(=O)(=O)CC)c(N)cc1OC` (centres undefined) [AMISULPRIDE], the “Bacterial Biotransformation” value is reported as “Compound NOT metabolized”.

Another data set can be described thus: The drug is tested on Eubacterium hallii strain: DSM3353 for biotransformation. The drug concentrations were measured before and after a 12-h incubation by liquid-chromatography-coupled mass spectrometry (LC–MS). The settings on record: anaerobutyricum hallii, 2 µM.
As to `CCN1CCCC1CNC(=O)c1cc(S(=O)(=O)CC)c(N)cc1OC` (centres undefined) [AMISULPRIDE], the “Bacterial Biotransformation” value is recorded as “Compound NOT metabolized”.

In the case of `CCCc1nc(C(C)(C)O)c(C(=O)OCc2oc(=O)oc2C)n1Cc1ccc(-c2ccccc2-c2nnn[nH]2)cc1` [OLMESARTAN MEDOXOMIL], the “Bacterial Biotransformation” value is “Compound metabolized”.

A further data set can be described thus: The drug is tested on Bifidobacterium longum subsp. Infantis strain: CCUG52486 for biotransformation. The drug concentrations were measured before and after a 12-h incubation by liquid-chromatography-coupled mass spectrometry (LC–MS). As to conditions: 2 µM.
Regarding `CCN1CCCC1CNC(=O)c1cc(S(=O)(=O)CC)c(N)cc1OC` (centres undefined) [AMISULPRIDE], the “Bacterial Biotransformation” value is “Compound NOT metabolized”.

As for `CCCc1nc(C(C)(C)O)c(C(=O)OCc2oc(=O)oc2C)n1Cc1ccc(-c2ccccc2-c2nnn[nH]2)cc1` [OLMESARTAN MEDOXOMIL], the “Bacterial Biotransformation” value is listed as “Compound metabolized”.

Another data set can be described thus: The drug is tested on Providencia rettgeri strain: DSM1131 for biotransformation. The drug concentrations were measured before and after a 12-h incubation by liquid-chromatography-coupled mass spectrometry (LC–MS). It is filed as ADME. Further details: dose 2 uM, timepoint 0 vs 12 hours. The settings on record: 2 µM.
On to `CCN1CCCC1CNC(=O)c1cc(S(=O)(=O)CC)c(N)cc1OC` (centres undefined) [AMISULPRIDE], for which the “Bacterial Biotransformation” value is reported as “Compound NOT metabolized”.

The conditions of another data set: anaerostipes sp., 12 h, 2 µM.
Description: The drug is tested on Anaerostipes sp. strain: fecal isolate for biotransformation. The drug concentrations were measured before and after a 12-h incubation by liquid-chromatography-coupled mass spectrometry (LC–MS)
As for `CCN1CCCC1CNC(=O)c1cc(S(=O)(=O)CC)c(N)cc1OC` (centres undefined) [AMISULPRIDE], the “Bacterial Biotransformation” value was “Compound NOT metabolized”.

With `CCCc1nc(C(C)(C)O)c(C(=O)OCc2oc(=O)oc2C)n1Cc1ccc(-c2ccccc2-c2nnn[nH]2)cc1` [OLMESARTAN MEDOXOMIL], the “Bacterial Biotransformation” value was “Compound metabolized”.

The next data set in a line: The drug is tested on Odoribacter splanchnicus strain: fecal isolate for biotransformation. The drug concentrations were measured before and after a 12-h incubation by liquid-chromatography-coupled mass spectrometry (LC–MS). As to conditions: 2 µM.
Turning to `CCN1CCCC1CNC(=O)c1cc(S(=O)(=O)CC)c(N)cc1OC` (centres undefined) [AMISULPRIDE], the “Bacterial Biotransformation” value was “Compound NOT metabolized”.

For the compound `CCCc1nc(C(C)(C)O)c(C(=O)OCc2oc(=O)oc2C)n1Cc1ccc(-c2ccccc2-c2nnn[nH]2)cc1` [OLMESARTAN MEDOXOMIL], the “Bacterial Biotransformation” value is on record as “Compound metabolized”.

The nature of a further data set: The drug is tested on Enterobacter cancerogenus strain: ATCC35316 for biotransformation. The drug concentrations were measured before and after a 12-h incubation by liquid-chromatography-coupled mass spectrometry (LC–MS). The settings on record: 2 µM.
As to `CCN1CCCC1CNC(=O)c1cc(S(=O)(=O)CC)c(N)cc1OC` (centres undefined) [AMISULPRIDE], the “Bacterial Biotransformation” value is reported as “Compound NOT metabolized”.

Take `CCCc1nc(C(C)(C)O)c(C(=O)OCc2oc(=O)oc2C)n1Cc1ccc(-c2ccccc2-c2nnn[nH]2)cc1` [OLMESARTAN MEDOXOMIL]: the “Bacterial Biotransformation” value was “Compound metabolized”.

The conditions of the next data set: bacteroides fragilis, 12 h, 2 µM.
Description: The drug is tested on Bacteroides fragilis strain: 3397 (T10) for biotransformation. The drug concentrations were measured before and after a 12-h incubation by liquid-chromatography-coupled mass spectrometry (LC–MS)
On to `CCN1CCCC1CNC(=O)c1cc(S(=O)(=O)CC)c(N)cc1OC` (centres undefined) [AMISULPRIDE], for which the “Bacterial Biotransformation” value was “Compound NOT metabolized”.

With `CCCc1nc(C(C)(C)O)c(C(=O)OCc2oc(=O)oc2C)n1Cc1ccc(-c2ccccc2-c2nnn[nH]2)cc1` [OLMESARTAN MEDOXOMIL], the “Bacterial Biotransformation” value is reported as “Compound metabolized”.

The nature of the next data set: The drug is tested on Bacteroides caccae strain: ATCC43185 for biotransformation. The drug concentrations were measured before and after a 12-h incubation by liquid-chromatography-coupled mass spectrometry (LC–MS). The settings on record: 2 µM.
As for `CCN1CCCC1CNC(=O)c1cc(S(=O)(=O)CC)c(N)cc1OC` (centres undefined) [AMISULPRIDE], the “Bacterial Biotransformation” value is on record as “Compound NOT metabolized”.

As for `CCCc1nc(C(C)(C)O)c(C(=O)OCc2oc(=O)oc2C)n1Cc1ccc(-c2ccccc2-c2nnn[nH]2)cc1` [OLMESARTAN MEDOXOMIL], the “Bacterial Biotransformation” value is recorded as “Compound metabolized”.

The conditions of the next data set: bacteroides thetaiotaomicron, 12 h, 2 µM.
Description: The drug is tested on Bacteroides thetaiotaomicron strain: 3731 for biotransformation. The drug concentrations were measured before and after a 12-h incubation by liquid-chromatography-coupled mass spectrometry (LC–MS)
`CCN1CCCC1CNC(=O)c1cc(S(=O)(=O)CC)c(N)cc1OC` (centres undefined) [AMISULPRIDE]: the “Bacterial Biotransformation” value is listed as “Compound NOT metabolized”.

A further data set is described as follows: The drug is tested on Ruminococcus lactaris strain: ATCC29176 for biotransformation. The drug concentrations were measured before and after a 12-h incubation by liquid-chromatography-coupled mass spectrometry (LC–MS). The settings on record: 2 µM.
As to `CCN1CCCC1CNC(=O)c1cc(S(=O)(=O)CC)c(N)cc1OC` (centres undefined) [AMISULPRIDE], the “Bacterial Biotransformation” value is listed as “Compound NOT metabolized”.

Regarding `CCCc1nc(C(C)(C)O)c(C(=O)OCc2oc(=O)oc2C)n1Cc1ccc(-c2ccccc2-c2nnn[nH]2)cc1` [OLMESARTAN MEDOXOMIL], the “Bacterial Biotransformation” value was “Compound metabolized”.

A short description of another data set: The drug is tested on Bacteroides xylanisolvens strain: DSM18836 for biotransformation. The drug concentrations were measured before and after a 12-h incubation by liquid-chromatography-coupled mass spectrometry (LC–MS). As to conditions: 2 µM.
For the compound `CCN1CCCC1CNC(=O)c1cc(S(=O)(=O)CC)c(N)cc1OC` (centres undefined) [AMISULPRIDE], the “Bacterial Biotransformation” value was “Compound NOT metabolized”.

Turning to `CCCc1nc(C(C)(C)O)c(C(=O)OCc2oc(=O)oc2C)n1Cc1ccc(-c2ccccc2-c2nnn[nH]2)cc1` [OLMESARTAN MEDOXOMIL], the “Bacterial Biotransformation” value is reported as “Compound metabolized”.

A short description of a further data set: The drug is tested on Clostridium scindens strain: ATCC35704 for biotransformation. The drug concentrations were measured before and after a 12-h incubation by liquid-chromatography-coupled mass spectrometry (LC–MS). As to conditions: 2 µM.
For the compound `CCN1CCCC1CNC(=O)c1cc(S(=O)(=O)CC)c(N)cc1OC` (centres undefined) [AMISULPRIDE], the “Bacterial Biotransformation” value was “Compound NOT metabolized”.

In the case of `CCCc1nc(C(C)(C)O)c(C(=O)OCc2oc(=O)oc2C)n1Cc1ccc(-c2ccccc2-c2nnn[nH]2)cc1` [OLMESARTAN MEDOXOMIL], the “Bacterial Biotransformation” value is on record as “Compound metabolized”.
